These results are taken from patent US20050163841A1, “Compositions and dosage forms for enhanced absorption of 3-amino-n-butyl-phosphinic acid” (priority 2003, published 2005).

Molecules are shown by their SMILES. Read-outs that look alike come from different tables or passages of the source.

The conditions of series [1]: cited from earlier work; for dose-corrected AUC: read from FIG. 4 of Gleitner 1.
Series [2] can be described thus: Human pharmacokinetics of 3-aminopropyl-n-butyl-phosphinic acid (Gleitner 1). The series is classed as in vivo, Humans. Particulars: implied from urinary excretion after oral administration.
Series [3] concerns patients suffering from Mild Cognitive Impairment (MCI). The note with it: 600 mg tid; cited from earlier work.

Consider `CCCCP(=O)(O)CCCN` [3-aminopropyl-n-butyl-phosphinic acid], for which the “dose-corrected AUC” value in series [1] (600 mg dose) was 40 μmol·h/(L·mmol); in series [1] (2100 mg dose) it was 20 μmol·h/(L·mmol). Moreover, the “reduction of drug systemic availability after food intake” value in series [1] (after food intake) is on record as 30%. Moreover, the “cumulative urinary excretion rate” value in series [1] (within 24 hours of i.v. administration) is 99.5+/−6.4 % of the dose; in series [1] (within 24 hours of oral administration), 38+/−13 % of the dose. In addition, the “absorption through the oral route” value in series [2] was found to be 38%. The “cognition in patients with Mild Cognitive Impairment” value in series [3] is reported as “showed improvements in multiple cognitive domains”.
